This is an account of results in US20120130481A1, “LOCAL VASCULAR DELIVERY OF ADENOSINE A2A RECEPTOR AGONISTS IN COMBINATION WITH OTHER AGENTS TO REDUCE MYOCARDIAL INJURY” (priority 2010, published 2012).

The structures appear in SMILES notation.

For data set [1], the system named is platelet deposition and thrombus formation on the stent surface. Kind of data set: In vitro bovine blood loop model (anti-thrombotic activity). The conditions noted are these: FIG. 12, cilostazol in sirolimus/cilostazol coatings. From the text: The anti-thrombotic efficacy of the above-described three configurations is illustrated in FIG. 12. FIG. 12 illustrates the anti-thrombotic properties of the sirolimus/cilostazol combination coatings described above in an in vitro bovine blood loop model. In the in vitro bovine blood loop model, fresh bovine blood is heparinized to adjust for acute clotting time (ACT) of about two hundred (200) seconds. The platelet content in the blood is labeled through the use of Indium 111. In the study, a stent is deployed in a silicone tube, which is part of a closed loop system for blood circulation. The heparinzed blood is circulated through the closed loop system by means of a circulating pump. Activated platelets, fibrin and thrombus builds up on a stent surface over time and reduces the flow rate of blood through the stented loop. The flow is stopped when the flow rate is reduced to fifty (50) percent of the starting value or at ninety (90) minutes if none of the tested stent reduces the flow by fifty (50) percent. The total radioactivity (In 111) on the stent surface is counted by a […] and normalized with the control unit, set as one hundred (100) percent in the chart. […]

A short description of data set [2]: Porcine drug elution PK study of dual drug eluting coating (in vivo release). The following applies: after eight (8) days of implantation, single layer configuration of FIG. 15 (FIG. 13). More on the design: species or system pig. An excerpt:
Another critical parameter for the performance of the thrombus resistance of a device coated with cilostazol is the duration of the drug release from the coating. This is of particular significance in the two weeks after device implantation. In the porcine drug elution PK studies of the dual drug eluting coating, both cilostazol and sirolimus were slowly released from the coating, resulting in a sustained drug release profile. The purpose of the porcine PK study is to assess the local pharmacokinetics of a drug eluting stent at a given implantation time. Normally three stents are implanted in three different coronary arteries in a pig for a given time point and then retrieved for total drug recovery analysis. The stents are retrieved at predetermined time points; namely, 1, 3 and 8 days. The stents are extracted and the total amount of drug remaining on the stents is determined by analysis utilizing HPLC (high performance liquid chromatography) for total drug amount. The difference between the original amount of drug on the stent and the amount of drug retrieved at a given time represents the amount of drug released in that period. The continuous release of drug into surrounding arterial tissue is what prevents the neointimal growth and restenosis in the coronary artery. A normal plot represents the percentage of total drug released (%, y-axis) vs. time of implantation (day, x-axis). […]

Data set [3] in a line: In vitro release kinetics of sirolimus/cilostazol stent coatings. In kind it is physicochemical.
Data set [4] can be described thus: In vivo release kinetics from dual drug reservoir stent, porcine coronary artery model. The conditions noted are these: at thirty (30) days, 3.5×17 mm reservoir stent, PLGA75/25, in vivo (FIG. 18). From the text: FIG. 18 graphically illustrates the release kinetic curves for sirolimus 1902 and cilostazol 1904 over a period of thirty (30) days from an in vivo release kinetics study. As illustrated, the release kinetics are similar for both drugs with approximately seventy (70) percent of both drugs being released from the stent at thirty (30) days (sirolimus being a little higher than the cilostazol). A 3.5×17 mm stent with reservoirs was utilized in the study. Each drug was placed individually in a reservoir to create an alternating pattern. The basic construct of each reservoir fill was a base (luminal side of the stent) comprising only polymer (PLGA75/25) and no drug, a drug matrix either comprising 120.4 micro grams of cilostazol and 197.1 micro grams of polymer (PLGA75/25) or 146.9 micro grams of sirolimus and 175.0 micro grams of polymer (PLGA75/25), and a cap comprising only polymer (PLGA75/25). The stent was placed in a standard porcine coronary artery model to evaluate the in vivo release kinetics and tissue concentration of both drugs released from the stent over time.

For data set [5] the following is noted: cited from earlier work.

As for `O=C1CCc2cc(OCCCCc3nnnn3C3CCCCC3)ccc2N1` [cilostazol, 6[4-(1-cyclohexyl-1H-tetrazol-5-yl)-butoxy]-3,4-dihydro-2-(1H)-quinolinone], the thrombus formation entry in data set [1] was “significantly reduces thrombus formation”. The “drug remained in the drug coating” value in data set [2] is on record as approximately 80%. Moreover, the “drug release rate, 200 µg vs 100 µg BMA diffusion overcoat” value in data set [3] (configuration of FIG. 7 (200 µg BMA) compared with FIG. 9 (100 µg BMA), FIGS. 8 and 10) was “comparatively slower”. The “in vitro release rate compared to the dual drug base coating” value in data set [3] (configuration of FIG. 7 vs FIG. 15) is given as “much faster rate”. Further, the in vitro release in data set [3] (single layer configuration of FIG. 15 (FIG. 14)) was approximately 35%. Besides, the “drug released from the stent” value in data set [4] is approximately 70%. Besides, in data set [5], the solubility in water entry is listed as “relatively low solubility in water”.
Regarding `CO[C@H]1C[C@@H]2CC[C@@H](C)[C@@](O)(O2)C(=O)C(=O)N2CCCC[C@H]2C(=O)O[C@H]([C@H](C)C[C@@H]2CC[C@@H](O)[C@H](OC)C2)CC(=O)[C@H](C)/C=C(\C)[C@@H](O)[C@@H](OC)C(=O)[C@H](C)C[C@H](C)/C=C/C=C/C=C/1C` [sirolimus], the “drug remained in the drug coating” value in data set [2] was approximately 80%. For the same compound, the “drug released from the stent” value in data set [4] was approximately 70%.
